{
  "source": "patent US8461186B2",
  "about": "“Use of N-piperidine derivatives for the treatment of neurodegenerative pathologies” (Medestea Research & Production S.p.A., priority 2004, dated 2013)",
  "key": {"[1]": {"tested_on": "lipid peroxidation in the Substantia Nigra", "assay_type": "in vivo", "conditions": "Substantia Nigra, 20 hours after Paraquat alone, 50 μg microinfusion", "method": "Microinfusion of 50 μg of Paraquat into the Substantia Nigra (n=20 rats) led to an increase in motor activity with the animals performing jumps and moving in circles in a contralateral direction relative to the injection position, about 24 minutes later; all of the animals were dead 24±2.5 hours after infusion. […]\n[…]. Enzymol. 52, 302-310, 1978."}, "[2]": {"tested_on": "rats receiving Paraquat into Substantia Nigra", "assay_type": "in vivo, rat", "description": "The Paraquat/rat/PS experimental model was therefore selected as the most indicative for checking the efficacy of chemical compounds according to the present invention; of these, two anti-oxidants designated MP1002 and MP1001 were used in the tests:\nMale Sprague Dawley rats (210-220 g weight) were kept on a standard laboratory diet supplemented with “Nossan Pellets” (both the animals and the pellets are available from Nossan Company, Milan, Italy) and were housed for three weeks (relative humidity 50%±10%, temperature 22° C.±1 and in a light/darkness cycle of 12 hours/12 hours, with first light at 7.30 a.m.) prior to the tests; food and water were available ad libitum.\nPrior to treatment, the rats were anaesthetized by intraperitoneal injection of 380 mg/kg weight of chloral hydrate; a stainless steel guide cannula (size 25) was implanted unilaterally in the Substantia Nigra with stereotaxic guiding and was secured to the cranium with dental acrylic material.\nThe animals (20 per test group) were allowed a recovery period of seven days prior to treatment; during this period no change in motor activity or posture was observed. Microinfusions were performed by means of a 10 μl Hamilton syringe connected to an injection cannula by means of a Teflon tube. The compounds or the vehicle (0.8% NaCl) were injected at a total volume of 1 μl/minute.\nMicroinfusion of 50 μg of Paraquat into the Substantia Nigra (n=20 rats) led to an increase in motor activity with the animals performing jumps and moving in circles in a contralateral direction relative to the injection position, about 24 minutes later; all of the animals were dead 24±2.5 hours after infusion. A further twenty animals were infused with Paraquat and twenty with Paraquat plus vehicle; about ten of the animals for each group survived 20 hours after treatment and were used to determine the development of lipid peroxidation in the Substantia Nigra."}, "[3]": {"conditions": "50 μg Paraquat into the Substantia Nigra, n=20 rats"}, "[4]": {"conditions": "Paraquat alone, 50 μg microinfusion into Substantia Nigra"}},
  "data": [
    {"smiles": "C[n+]1ccc(-c2cc[n+](C)cc2)cc1", "note": "[Paraquat, reference compound]", "values": [
      {"measurement": "Lipid Peroxidation", "setting": "[1]", "result": "14.6 ± 1.34 nmol MDA × h^−1 × mg prot^−1"},
      {"measurement": "time after infusion at which all of the animals were dead", "setting": "[2]; [3]", "result": "24 ± 2.5", "unit": "h"},
      {"measurement": "time to increase in motor activity (jumps, contralateral circling) after microinfusion", "setting": "[2]; [3]", "result": "about 24 minutes"},
      {"measurement": "Duration (seizures)", "setting": "[2]; [4]", "result": "270 ± 15", "unit": "min"},
      {"measurement": "Latency (seizures)", "setting": "[2]; [4]", "result": "25 ± 4", "unit": "min"},
      {"measurement": "Mortality", "setting": "[2]; [4]", "result": "100 (20/20) %"}
    ]}
  ]
}
